From patent US11725020B2, “Prodrugs of a CDK inhibitor for treating cancers” (priority 2019, dated 2023)
Entries after “also recorded” stand apart in the source; their conditions may differ.

Legend:
[1] = Toxicity study in mice: tolerability after i.v. administration; type: in vivo; conditions: for toxicity compared with AT7519: 2-fold (11) and 4-fold (12) molar-equivalents of the AT7519 threshold level
Protocol: (§1) Male mice (BABL/c) of 20 to 22 g were maintained under standard conditions and randomized into groups. […] Doses were calculated and expressed in mmol/kg-body weight, and drug tolerability, pharmacokinetics, and body weight effect were assessed.

[2] = Toxicity study in mice: toxicokinetics, plasma AT7519 concentration; type: in vivo, Male mice (BABL/c); conditions: for plasma AT7519 exposures compared with AT7519 dosing: i.v., compound 11 0.062 mmol/kg, compound 12 0.124 mmol/kg, AT7519 0.031 mmol/kg
Protocol: as §1
Blood samples were collected at 2 min, 10 min, 1 h, and 4 h. Concentration of T7519 was analyzed in each sample using LC-MS/MS method. The results are summarized in Table 3, and the concentration-time curves are illustrated in FIG. 1.

[3] = Toxicity study in mice: body weight after a single i.v. dose; type: in vivo, Male mice (BABL/c)
Protocol: as §1
Clinical observations were made in the following schedule: continuous observation in the first four hours after dosing, and then twice daily, at one week time, and at day 14. The parameters for observation included animal's physical and mental behaviors, autonomous activity, hair, gland secretion, feces, and death. Body temperature was taken at pre-dosing, and on days 3, 5, 7, and 10 post-dosing.
The body weights of the animals are summarized in Table 4, and the trend lines for animal body weight changes in each group are given in FIG. 2. The body weight was average weight of all the animals in the group from a single measurement.

[4] = Toxicokinetic study in rats: dose exploration; type: in vivo, Male SD (Sprague Dawley) rats; conditions: rat, i.v., one animal
Protocol: (§2) Male SD (Sprague Dawley) rats of body weight 220 to 240 g were maintained under standard conditions and randomized into three groups. On day 0 (initial day), all the animals were given one of the three compounds intravenously. Dose was calculated in mmol/kg.
(a) Dose exploration: One animal from each group was given the preset high dose of each compound.

[5] = Toxicokinetic study in rats: TK study, plasma AT7519 concentration; type: in vivo, Male SD (Sprague Dawley) rats; conditions: male, Sprague-Dawley, iv; rat plasma, I.V., 0.039 mmol/kg
Protocol: as §2
(b) TK study: The remaining animals were randomized into three groups, with 6 in each group. […] TK analysis was conducted as follows: Blood samples were collected at time points of 2 min, 10 min, 1 h, 2 h, and 6 h into sample tube (heparinized).

non-CDK kinases = conditions: with the exception of GSK3β; cited from earlier work
MCF-7 = conditions: read-out: antiproliferative IC50; cited from earlier work
SW620 = conditions: read-out: antiproliferative IC50; cited from earlier work
MM.1S = conditions: 48 hours, read-out: cytotoxicity IC50; cited from earlier work
U266 = conditions: U266, 48 hours; read-out: cytotoxicity IC50; cited from earlier work
MM.1R = conditions: 48 hours, read-out: cytotoxicity IC50; cited from earlier work
[6] = test system: peripheral blood mononuclear cells (PBMNC); conditions: cited from earlier work
[7] = test system: HCT116 colon cancer xenograft; conditions: 9.1 mg/kg twice daily, early-stage and advanced-stage s.c. tumors; cited from earlier work
[8] = test system: HT29 colon cancer xenograft; conditions: 9.1 mg/kg twice daily, early-stage and advanced-stage s.c. tumors; cited from earlier work
human MM xenograft = conditions: 15 mg/kg; cited from earlier work
[9] = human, in vivo; cited from earlier work
[10] = 32.4 mg/m^2; cited from earlier work
[11] = male, BALB/c, mouse, plasma, iv, I.V., 0.031 mmol/kg
[12] = single i.v. dose 0.031 mmol/kg on day 0, group average
[13] = single i.v. dose 0.062 mmol/kg on day 0, group average
[14] = single i.v. dose 0.124 mmol/kg on day 0, group average

O=C(NC1CCNCC1)c1n[nH]cc1NC(=O)c1c(Cl)cccc1Cl [AT7519, 4-(2,6-Dichlorobenzamido)-N-(4-piperidinyl)-1H-pyrazole-3-carboxamide]
threshold lethal dose ([1]; male, BALB/c, mouse, in vivo, iv): 0.031 mmol/kg
Death rate (%) ([1]; mice, i.v., 0.031 mmol/kg): 20%
Number of deaths ([1]; mice, i.v., 0.031 mmol/kg, 20 animals in group): 4
Death rate (%) ([1]; mice, i.v., 0.039 mmol/kg): 100%
concentration at 2 min [2, 11]: 10200 ng/mL
concentration at 10 min [2, 11]: 1840 ng/mL
concentration at 1 h [2, 11]: 489 ng/mL
concentration at 4 h [2, 11]: 47 ng/mL
Body weight (g) Day 0 [3, 12]: 19.44 g
Body weight (g) Day 1 [3, 12]: 19.53 g
Body weight (g) Day 2 [3, 12]: 19.45 g
Body weight (g) Day 4 [3, 12]: 20.94 g
Body weight (g) Day 7 [3, 12]: 20.83 g
Body weight (g) Day 10 [3, 12]: 20.63 g
Animal death ([4]; 0.049 mmol/kg): already at their lethal doses; also recorded: Died immediately post-dosing
concentration at 2 min [5]: 19100 ng/mL
concentration at 10 min [5]: 4600 ng/mL
concentration at 1 h [5]: 814 ng/mL
concentration at 4 h [5]: 554 ng/mL
concentration at 6 h [5]: 148 ng/mL
activity against all non-CDK kinases (non-CDK kinases): inactive
IC50 (MCF-7): 40 nM
IC50 (SW620): 940 nM
IC50 (MM.1S): 500 nM
IC50 (U266): 500 nM
IC50 (MM.1R): > 2000 nM
cytotoxicity in PBMNC [6]: does not induce cytotoxicity
effect on tumors [7]: tumor regression
effect on tumors [8]: tumor regression
median overall survival (human MM xenograft): prolong the median overall survival
tumor growth (human MM xenograft): inhibit tumor growth
AEs of CTCAE grade 1 severity [9]: 46.7%
AEs of CTCAE grade 2 severity [9]: 37.8%
patients with at least one treatment-related AE [9]: 82.1%
treatment-emergent AE anorexia [9]: 39.3%
treatment-emergent AE constipation [9]: 32.1%
treatment-emergent AE fatigue [9]: 42.9%
treatment-emergent AE hypotension [9]: 25.0%
treatment-emergent AE nausea [9]: 50.0%
treatment-emergent AE peripheral edema [9]: 25.0%
treatment-emergent AE pyrexia [9]: 25.0%
treatment-emergent AE vomiting [9]: 39.3%
DLT among the initial three patients [10]: one patient experienced DLT (grade 3 fatigue)
DLT in two additional patients [10]: both of whom experienced DLTs (febrile neutropenia and grade 3 hypokalemia and mucositis)

O=C(NC1CCNCC1)c1nn(COP(=O)([O-])[O-])cc1NC(=O)c1c(Cl)cccc1Cl.[Na+].[Na+] [Compound 11]
Death rate (%) ([1]; mice, i.v., 0.062 mmol/kg): 0%
toxicity compared with AT7519 ([1]; mice, i.v.): much less toxic than AT7519
plasma AT7519 exposures compared with AT7519 dosing [2]: much higher
Body weight (g) Day 0 [3, 13]: 19.16 g
Body weight (g) Day 1 [3, 13]: 18.58 g
Body weight (g) Day 2 [3, 13]: 18.83 g
Body weight (g) Day 4 [3, 13]: 19.95 g
Body weight (g) Day 7 [3, 13]: 20.16 g
Body weight (g) Day 10 [3, 13]: 20.52 g
Animal death ([4]; 0.055 mmol/kg, listed as compound 11, phosphate disodium Salt): already at their lethal doses
Animal death ([4]; 0.055 mmol/kg, phosphate disodium Salt): Died at 2 min post-dosing

COC(=O)[C@H](C)NP(=O)(Oc1ccccc1)N1CCC(NC(=O)c2n[nH]cc2NC(=O)c2c(Cl)cccc2Cl)CC1 (stereo partly drawn) [Compound 12, N-((4-(4-(2,6-dichlorobenzamido)-1H-pyrazole-3-carboxamido)-1-piperidinyl)(phenoxy)phosphinyl)-L-alanine methyl Ester]
Death rate (%) ([1]; mice, i.v., 0.124 mmol/kg): 0%
toxicity compared with AT7519 ([1]; mice, i.v.): much less toxic than AT7519
plasma AT7519 exposures compared with AT7519 dosing [2]: much higher
Body weight (g) Day 0 [3, 14]: 19.75 g
Body weight (g) Day 1 [3, 14]: 18.70 g
Body weight (g) Day 2 [3, 14]: 19.17 g
Body weight (g) Day 4 [3, 14]: 19.95 g
Body weight (g) Day 7 [3, 14]: 20.79 g
Body weight (g) Day 10 [3, 14]: 21.30 g
Animal death ([4]; 0.125 mmol/kg): Behaved normally
Animal death ([4]; 0.125 mmol/kg, listed as compound 12): did not induce the animal death
